Test results reported in US12208080B2, “Compositions and methods for modulation of extracellular vesicle release and treatment of neurological disorders” (GEORGE MASON RESEARCH FOUNDATION, INC., priority 2018, dated 2025).

Test system: HIV-1 infected monocytes (U1)
Assay: RT-qPCR of intracellular HIV-1 TAR and env RNA in U1 cells (viral transcription)
Assay type: cell-based
Conditions: for intracellular TAR RNA (HIV-1 transcription) / intracellular env RNA (HIV-1 transcription): 1, 5, 20, 50 μM, 5 days, FIG. 4A; for intracellular TAR RNA / intracellular env RNA: CBD 1, 5, 10 μM, THC 1, 5, 10 μg/mL every day for 5 days, FIG. 15A
Description: HIV-1 infected monocytes (U1) were treated with CBD (1, 5, 20, and 50 μM) or THC (1, 5, 20, and 50 μM) for 5 days. Total RNA was isolated from cell pellets and analyzed by RT-qpCR for TAR RNA and env RNA. Student's t-test was used to determine significance (***=p<0.001, and**=p<0.01).
FIGS. 15A-15C are graphs and gels showing cannabidiols lower intracellular viral transcription and downstream viral products. U1 cells (1×10^6) were treated with a titration of CBD (1, 5, 10 μM) and THC (1, 5, 10 μg/mL) every day for 5 days. A) Intracellular RNA was isolated and analyzed through RT-qPCR for HIV-1 viral transcripts TAR and env. Each bar represents an average of three independent replicates. B) U1 cells (2×10^6) were treated with a titration of CBD (1, 5, 10 μM) every day for 5 days. Cells pellets were lysed, run through SDS-PAGE, and western blotted for (p-)/NF-κB, autophagosomal markers (p63, LC3), EV biogenesis marker VPS4, viral markers (gp120, Nef, p24), and Actin. C) U1 cells (5×10^6) were treated±CBD (10 μM) and Flavopiridol hydrochloride (50 nM; indicated as Flavo) and incubated for the following time points: 0 minutes, 2 hours and 6 hours. Cells were cross-linked with 1% formaldehyde solution and ChIP-ed for IgG and Pol II. ChIP DNA samples were analyzed via qPCR for TAR and env. Student's t-test was used for statistical analysis, where *p-value≤0.05; **p-value≤0.01, ***p-value≤0.001.
To determine if the observed reduction in EV-associated viral RNA was a result of a decrease in HIV-1 transcription rather than an alteration in the packaging of these viral RNAs into EVs, intracellular RNA was analyzed to assess for changes HIV-1 transcription. […] The differences in inhibition of short transcripts imply targeting at different stages of transcription with CBD inhibiting transcription initiation and THC inhibiting transcription elongation. These differences in transcriptional regulation can be further analyzed using a three-state L TR mathematical model to depict changes in viral RNA and protein production over extended periods of time (FIG. 4B).
For the isolation of total RNA, cells were harvested, washed once in 1×PBS without calcium or magnesium and resuspended in 50 μL of 1×PBS. For the isolation of total RNA from EVs, Nanotrap particles were incubated and harvested as described above, then resuspended in 50 μL of 1×PBS without calcium or magnesium. Total RNA was isolated from cell pellets and NT80/82 pellets bound with EVs using Trizol Reagent (Invitrogen) as described by the manufacturer's protocol. cDNA was generated using GoScript Reverse Transcription Systems (Promega) using Envelope Reverse: (5′-TGGGATAAGGGTCTGAAACG-3′ (SEQ ID NO:1); Tm=58° C.), and TAR Reverse: (5′-CAACAGACGGGCACACACTAC-3′ (SEQ ID NO:2), Tm=58° C.) primers. Serial dilutions of DNA from a CEM T-cell line containing a single copy of HIV-1 LAV provirus per cell (8E5 cells) were used as the quantitative standards. cDNA samples (2 μL/well) were plated into a Master Mix (18 μL/well) containing IQ Supermix (Bio-Rad), TAR Forward Primer (5′-GGTCTCTCTGGTTAGACCAGATCTG-3′ (SEQ ID NO:3)), TAR Reverse Primer (5′-CAACAGACGGGCACACACTAC-3′ (SEQ ID NO:4)), and TAR Probe (5′56-FAM-AG CCTCAATAAAGCTTGCCTTGAGTGCTTC-36-TAMSp-3′ (SEQ ID NO:5)). RT-qPCR conditions were as follows: one cycle for 2 min at 95° C. followed by 41 cycles of 95° C. for 15 s and 58° C. for 40 s. Reactions were performed in triplicate using the BioRad CFX96 Real Time System. Quantitation was determined using cycle threshold (Ct) values relative to the 8E5 standard curve using the BioRad CFX Manager Software. Analysis of generated raw data was analyzed using Microsoft Excel 2016.
Therefore, U1 monocytes were treated with a titration of CBD (1, 5, 10 μM) and THC (1, 5, 10 μg/mL) every day for 5 days. Total RNA was isolated from the harvested cell pellets followed by RT-qPCR analysis of 3 independent replicates for TAR and env RNAs.

[1] = 10 μM every day for 5 days, FIG. 15A lane 4

SMILES | decrease in intracellular TAR RNA compared to untreated control [1] [%] | decrease in intracellular env RNA compared to untreated control [1] [%] | intracellular TAR RNA (HIV-1 transcription) | intracellular env RNA (HIV-1 transcription) | intracellular TAR RNA | intracellular env RNA
C=C(C)[C@@H]1CCC(C)=C[C@H]1c1c(O)cc(CCCCC)cc1O [CBD, 2-[1R-3-methyl-6R-(1-methylethenyl)-2-cyclohexen-1-yl]-5-pentyl-1,3-benzenediol] | 95 | 96 | decrease of both transcripts | decrease of both transcripts | dose-dependent decrease | dose-dependent decrease
CCCCCc1cc(O)c2c(c1)OC(C)(C)[C@@H]1CCC(C)=C[C@@H]21 [THC, Δ9-tetrahydrocannabinol] |  |  | only resulting in a decrease in the env RNA | decrease in the env RNA | not TAR RNA | only treatment with the highest concentration of THC resulted in a significant decrease
